In patent US12377069B2, “Compounds, compositions, methods of using, and methods for preparing compounds” (UNIVERSITY OF LOUISVILLE RESEARCH FOUNDATION, INC., priority 2018, dated 2025):

What was measured:
Nrf2^−/− mice = test: TNBS-induced colitis in Nrf2^−/− mice; type: in vivo, mouse; details: 20 mg/kg every 12 h post TNBS
Procedure: FIG. 7: UroA/UAS03 utilize Nrf2 pathways to mitigate colitis. (A-F) Colitis was induced using TNBS in C57BL/6 (WT) and Nrf2^−/− mice (n=4-5/group 7-8 week old age). Mice were treated with Veh or UroA/UAS03 (20 mg/kg bodyweight) every 12 h post TNBS administration ending at 72 h. Representative data from two independent experiments is shown. (A) TNBS-induced colitis experimental design and treatment regimen. (B) Percent body weight loss (No TNBS− Solid black line; Veh+TNBS− Solid red line; UroA+TNBS− Solid blue line; UAS03+TNBS− Solid purple line), (C) representative colon images, (D) colon lengths, (E) gut permeability, (F) serum levels of IL-6 and TNF-α were determined. Statistical analysis was performed (unpaired t-test) using Graphpad Prism software. Error bars, ±SEM ***p<0.001; **p<0.01 *p<0.05.
(§1) 2,4,6-Trinitrobenzenesulfonic acid (TNBS)-induced colitis: Male C57BL/6 or Nrf2^−/− mice (6-8 week old age mice) were anesthetized with ketamine/xylazine (100 mg/12.5 mg/kg IP) mixture and administered with single dose of TNBS (2.5 mg/mice; Sigma Aldrich, USA) in 50% ethanol. After administration of TNBS, mice were held upside down for 30-60 sec to ensure proper distribution of TNBS in the colon. Control group received 50% ethanol without TNBS. Mice with TNBS were randomly divided into three groups, viz. vehicle (0.25% sodium carboxymethylcellulose (CMC)), UroA and UAS03. UroA or UAS03 was resuspended in 0.25% sodium-CMC at desired concentrations. The mice were given orally Veh or UroA or UAS03 in 100 μl at desired concentrations (4 or 20 mg/kg/body weight). The treatment started after 12 hours of TNBS administration and every 12 hours thereafter up to 72 hours. The experiment was terminated post 60 h TNBS, where AhR^−/− mice were involved. In some experiments, we treated only once at post 12 h TNBS administration. TNBS administered and control mice were euthanized for tissue and plasma collection after 80 hours of TNBS/ethanol treatment. Mice were examined for colitis phenotype.

HT29 cells = test: AhR/Cyp1A1 siRNA knockdown and Cyp1A1 CRISPR/Cas9 deletion; type: cell-based, human; details: 24 h; for Cldn4 or NQO1 in Cyp1A1 deleted cells: CRISPR/Cas9, 50 μM; for Cldn4 induction in AhR or Cyp1A1 knockdown cells: siRNA, 50 μM
Procedure: Small interfering RNA (siRNA) mediated knockdown experiment: The AhR siRNA (SR300136) and Cyp1A1 siRNA (SR301093) was purchased from Origene. For knockdown experiments, HT29 cells (0.5×10^6 cells/well) were plated in 6 well plate and grown for 24 hr. The AhR, Cyp1A1 and control-siRNA was transfected into HT29 cells using Lipofectamine® RNAiMAX reagent (ThermoFisher Scientific) as per instruction given. After 24 hr of transfections, cell were induced with vehicle (0.01% DMSO), UroA (50 μM) and UAS03 (50 μM) for 24 hr. After treatment with inducers, cells were lysed using RIPA buffer and total protein was used to analyse the expression of AhR, Cyp1A1 and cldn4 by western blot.
Cyp1A1 deletion by CRISPR/Cas9 method: HT29 cells (1.5×10^5) were plated in 6-well in antibiotic free standard growth medium 24 h prior to transfection. At 60% confluency cells, cell were co-transfected with 2 μg each of CRISPR/Cas9 KO Plasmid (sc-400511-KO-2; Santa cruz) and HDR Plasmid (sc-400511-HDR-2; Santa cruz) using UltraCruz® Transfection Reagent (sc-395739; Santa Cruz). Medium was replaced with selective medium (containing 4 μg/mL puromycin) 96 hr post transfection. Transfection was confirmed with fluorescence microscopy and western blot (CYP1A1). The double positive cells for GFP and RFP were sorted using MoFlo XDP sorting instrument (Beckman Coulter). The deletion of Cyp1A1 in these sorted was confirmed by Western blots. These cells were then plated in 6-well plate for in standard medium for evaluating the effect of UroA/UAS03 on Cldn4 expression. After 24 hr of UroA/UAS03 treatment cells were harvested for protein and Cldn4 expression was investigated along with normal HT29 cells.

[1] = test system: Human Umbilical Vein Endothelial Cells (HUVECs); test: HUVEC CDH5 expression and in vitro permeability; type: cell-based
AhR^−/− mice = test: TNBS-induced colitis in AhR^−/− mice; type: in vivo, mouse; details: 20 mg/kg every 12 h; for serum IL-6 in AhR^−/− mice / serum TNF-α in AhR^−/− mice / shortening of colon lengths in AhR^−/− mice: 60 h post TNBS
Procedure: FIG. 8: UroA/UAS03 exert beneficial activities through AhR-dependent pathways. (A-F) Colitis was induced using TNBS in C57BL/6 (WT) and AhR^−/− mice (n=4/group 7-8 week old age). Mice were treated with Veh or UroA/UAS03 (20 mg/kg bodyweight) every 12 h post TNBS administration and mice were euthanized at post 60 h TNBS administration. (A) TNBS-induced colitis experimental design and treatment regimen. (B) Percent body weight loss (No TNBS-Solid black line; Veh+TNBS− Solid red line; UroA+TNBS− Solid blue line; UAS03+TNBS− Solid purple line), (C) representative colon images, (D) colon lengths, (E) gut permeability, (F) serum levels of IL-6 and TNF-α were determined. Statistical analysis was performed (unpaired t-test) using Graphpad Prism software. Error bars, ±SEM ***p<0.001; **p<0.01 *p<0.05. (G) AhR-Nrf2 dependent tight junction protein regulation by UroA/UAS03. UroA/UAS03 (L:ligands) bind to AhR and activate its nuclear translocation to induce expression of Cyp1A1 and Nrf2. […] (H) LPS (50 ng/ml)-induced IL-6 levels were measured in the presence of Vehicle or UroA or UAS03 (0.1, 1, 10, 20, 30 and 50 μM) in bone marrow derived macrophages (BMDM) from wild type (WT), Nrf2^−/− and AhR^−/− mice. The data is representative of two independent experiments with triplicates. Statistical analysis was performed (unpaired t-test) using Graphpad Prism software. Error bars, ±SEM ***p<0.001; **p<0.01 *p<0.05.
as §1

SMILES	barrier function (FITC-dextran leakage) in Nrf2^−/− mice (Nrf2^−/− mice)	body weight loss and colon shortening in Nrf2^−/− mice (Nrf2^−/− mice)	serum IL-6 and TNF-α levels in Nrf2^−/− mice (Nrf2^−/− mice)	Cldn4 or NQO1 in Cyp1A1 deleted cells (HT29 cells)	Cldn4 induction in AhR or Cyp1A1 knockdown cells (HT29 cells)	expression of CDH5 (VE-Cadherin) [1]	rapid body weight loss in AhR^−/− mice treated with TNBS (AhR^−/− mice)	serum IL-6 in AhR^−/− mice (AhR^−/− mice)	serum TNF-α in AhR^−/− mice (AhR^−/− mice)	shortening of colon lengths in AhR^−/− mice (AhR^−/− mice)
Oc1ccc2c(c1)COc1cc(O)ccc1-2 [UAS03, 6H-benzo[c]chromene-3,8-diol]	did not enhance barrier function	did not appear to restore body weight loss	partially reduced	did not appear to upregulate	does not appear to induce Cldn4	increased the expression of CDH5	some protective role	did not appear to reduce IL-6	slightly reduced	did not appear to protect
O=c1oc2cc(O)ccc2c2ccc(O)cc12 [UroA, 3,8-dihydroxy-6H-dibenzo[b,d]pyran-6-one]	did not enhance barrier function	did not appear to restore body weight loss	partially reduced	did not appear to upregulate	does not appear to induce Cldn4	increased the expression of CDH5		did not appear to reduce IL-6	slightly reduced	did not appear to protect
